Values of other authors as cited in patent US20060246133A1, “Controlled release pharmaceutical compositions of liothyronine and methods of making and using the same” (priority 2005, published 2006).

Settings: when administered in an immediate release form

half-life: about 10 hours
Structure (SMILES): N[C@@H](Cc1cc(I)c(Oc2ccc(O)c(I)c2)c(I)c1)C(=O)O [liothyronine]
